Patent publication US5138069A (E. I. Du Pont de Nemours and Company, priority 1988, dated 1992)
Where a name gives a salt, the structure may show the parent alone. Read-outs that look alike come from different tables or passages of the source.

Key:
Renal Hypertensive Rats = assay: Antihypertensive effects in renal hypertensive rats; assay type: in vivo; conditions: Rattus norvegicus; for minimal effective dose at 10 mg/kg / minimal effective dose at 100 mg/kg: Table 25; for minimal effective dose at 10 mg/kg / minimal effective dose at 3 mg/kg: intravenous; for minimal effective dose at 10 mg/kg: 10 mg/kg or less; for minimal effective dose at 100 mg/kg / minimal effective dose at 30 mg/kg: oral; for minimal effective dose at 100 mg/kg: 100 mg/kg or less; for minimal effective dose at 3 mg/kg / minimal effective dose at 30 mg/kg: Table 26
Summary of the method: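 Renal hypertensive rats (renin-driven AII elevation) dosed orally at 100 mg/kg and/or i.v. via jugular cannula at 10 mg/kg; a second set used 30 mg/kg oral and 3 mg/kg i.v. Arterial pressure recorded continuously via carotid cannula and compared with pretreatment levels.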

AII receptor = assay: Angiotensin II receptor binding (displacement of 3H-AII); conditions: read-out: Angiotensin II Receptor Binding IC50, rat adrenal cortical microsomes, 2 nM 3H-AII, 1 hour, room temperature
Summary of the method: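 The receptor source was rat adrenal cortical microsomes in Tris buffer, incubated with 2 nM ³H-AII plus or minus test compound for 1 h at room temperature. Bound and free ligand were separated by rapid filtration on glass-fibre filters. Filter-bound ³H-AII was counted by scintillation.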

[1] = Table 25, tested as sodium salt

| IC50 (AII receptor; Table 25) [µM] | IC50 (AII receptor; Table 26) [µM] | SMILES | minimal effective dose at 10 mg/kg (Renal Hypertensive Rats) [mg/kg] | minimal effective dose at 30 mg/kg (Renal Hypertensive Rats) [mg/kg] | also measured |
| --- | --- | --- | --- | --- | --- |
|  |  | CCCCc1nc(Cl)c(Cc2nnn[nH]2)n1Cc1ccc(-c2nnn[nH]2)cc1 [Example 27, 2-Butyl-4-chloro-5-[(1H-tetrazol-5-yl)methyl]-1-[4-(1H-tetrazol-5-yl)benzyl]imidazole] |  |  | minimal effective dose at 10 mg/kg (Renal Hypertensive Rats; tested as sodium salt): < 10 mg/kg; minimal effective dose at 100 mg/kg (Renal Hypertensive Rats; tested as sodium salt): < 100 mg/kg; IC50 (AII receptor; [1]): 1.2 µM |
| 0.36 |  | CCCCc1nc(Cl)c(CO)n1Cc1ccc(NC(=O)c2ccccc2NS(=O)(=O)C(F)(F)F)cc1 [Example 53B] | < 10 |  |  |
| 0.15 |  | CCCCc1nc(Cl)c(C(N)=O)n1Cc1ccc(-c2ccccc2C(=O)O)cc1 [Example 127, 1-[(2'-carboxybiphenyl-4-yl)methyl]-2-butyl-4-chloroimidazole-5-carboxamide] | < 10 |  | minimal effective dose at 100 mg/kg (Renal Hypertensive Rats): < 100 mg/kg |
| 2.3 |  | CCCCc1nc(Cl)c(CC(=O)OC)n1Cc1ccc(NC(=O)c2ccccc2NS(C)(=O)=O)cc1 [Example 51] | > 100 |  | minimal effective dose at 100 mg/kg (Renal Hypertensive Rats): > 100 mg/kg |
| 8.3 |  | CC(C)c1nccn1Cc1ccc(NC(=O)c2ccccc2NS(=O)(=O)C(F)(F)F)cc1 [Example 58] | < 10 |  | minimal effective dose at 100 mg/kg (Renal Hypertensive Rats): > 100 mg/kg |
| 0.25 |  | CCCCc1nc(Cl)c(CCCOC(C)=O)n1Cc1ccc(NC(=O)c2ccccc2NS(=O)(=O)C(F)(F)F)cc1 [Example 248] | < 10 |  |  |
| 0.21 |  | CCCCc1ncc(CO)n1Cc1ccc(NC(=O)c2ccccc2NS(=O)(=O)C(F)(F)F)cc1 [Example 53C] | < 10 |  |  |
| 0.092 |  | CCCCc1nc(Cl)c(C(=O)O)n1Cc1ccc(-c2ccccc2C(=O)O)cc1 [Example 240, 1-[(2'-Carboxybiphenyl-4-yl)methyl]-2-butyl-4-chloroimidazole-5-carboxylicacid] | < 10 |  |  |
|  | 0.006 | CCCc1nc(C(F)(F)F)c(CO)n1Cc1ccc(-c2ccccc2-c2nn[nH]n2)cc1 [Example 124D] |  | < 30 | minimal effective dose at 3 mg/kg (Renal Hypertensive Rats): < 3 mg/kg |
| 0.12 |  | CCCCc1nc(Cl)c(CC(C)C(=O)OC(C)C)n1Cc1ccc(NC(=O)c2ccccc2C(=O)O)cc1 (stereo not shown) [Example 246] | < 10 |  |  |
|  | 0.41 | CCCCc1nc(Cl)c(C(O)c2ccccc2)n1Cc1ccc(-c2ccccc2-c2nn[nH]n2)cc1 (stereo not drawn) [Example 317A, α-[2-n-butyl-4-chloro-1-[(2'-(1H-tetrazol-5-yl)biphenyl-4-yl)methyl]imidazol-5-yl]-α-phenylmethanol] |  | > 30 | minimal effective dose at 3 mg/kg (Renal Hypertensive Rats): < 3 mg/kg |
|  | 0.091 | CCCCc1nc(Cl)c(CO)n1Cc1ccc(-c2ccccc2C(=O)NS(=O)(=O)c2ccccc2C)cc1 [Example 319] |  | > 30 | minimal effective dose at 3 mg/kg (Renal Hypertensive Rats): < 3 mg/kg |
| 0.088 |  | CCCCc1nc(Cl)c(CCC(C)=O)n1Cc1ccc(NC(=O)c2ccccc2C(=O)O)cc1 [Example 244] | < 10 |  |  |
|  |  | CCCCc1nc(Cl)c(CNC(=O)NC)n1Cc1ccc(-c2ccccc2C(=O)O)cc1 [Example 166] |  |  | minimal effective dose at 10 mg/kg (Renal Hypertensive Rats; tested as sodium salt): < 10 mg/kg; minimal effective dose at 100 mg/kg (Renal Hypertensive Rats; tested as sodium salt): > 100 mg/kg; IC50 (AII receptor; [1]): 0.24 µM |
|  |  | CCCCc1nc(Cl)c(CNS(C)(=O)=O)n1Cc1ccc(C(=O)c2ccccc2C(=O)O)cc1 [Example 215] |  |  | minimal effective dose at 10 mg/kg (Renal Hypertensive Rats; tested as sodium salt): < 10 mg/kg; minimal effective dose at 100 mg/kg (Renal Hypertensive Rats; tested as sodium salt): > 100 mg/kg; IC50 (AII receptor; [1]): 0.2 µM |
| 0.79 |  | CCCCc1ncc(CO)n1-c1ccc(NC(=O)c2ccccc2NS(=O)(=O)C(F)(F)F)cc1 [Example 326, 2-n-butyl-5-hydroxymethyl-1-[4-((N-trifluoromethanesulfonyl)anthranilamido)phenyl]imidazole] | < 10 |  |  |
|  | 0.16 | CCCc1nc(C(F)(F)C(F)(F)F)c(C=O)n1Cc1ccc(-c2ccccc2C(=O)O)cc1 [Example 140B] |  | < 30 |  |
| 0.93 |  | COCCc1nc(Cl)c(CO)n1Cc1ccc(NC(=O)c2ccccc2C(=O)O)cc1 [Example 55, 1-[4-(2-Carboxybenzamido)-benzyl]-4-chloro-5-hydroxymethyl-2-(2-methoxyethyl)imidazole] | < 10 |  | minimal effective dose at 100 mg/kg (Renal Hypertensive Rats): > 100 mg/kg |
| 0.16 |  | CCCCc1nc(Cl)c(CCC(=O)OC)n1Cc1ccc(NC(=O)c2ccccc2NS(=O)(=O)C(F)(F)F)cc1 [Example 235, 3-[2-Butyl-4-chloro-1-(4-((N-trifluoromethanesulfonyl)anthranilamido)benzyl)imidazol-5-yl]-propanoic acid methyl ester] | < 10 |  | minimal effective dose at 100 mg/kg (Renal Hypertensive Rats): > 100 mg/kg |

| IC50 (AII receptor; Table 25) [µM] | IC50 (AII receptor; Table 26) [µM] | SMILES | minimal effective dose at 10 mg/kg (Renal Hypertensive Rats) [mg/kg] | minimal effective dose at 30 mg/kg (Renal Hypertensive Rats) [mg/kg] | also measured |
| --- | --- | --- | --- | --- | --- |
| 0.06 |  | CCCCc1nc(Cl)c(CNC(=O)OC)n1Cc1ccc(-c2ccccc2-c2nnn[nH]2)cc1 [Example 156] | < 10 |  |  |
|  | 0.66 | CCCCc1nc(Cl)c(C=NNS(=O)(=O)c2ccccc2)n1Cc1ccc(-c2ccccc2-c2nnn[nH]2)cc1 [Example 327, 2-n-Butyl-4-chloro-1-[(2'-(1H-tetrazol-5-yl)biphenyl-4-yl)methyl]-imidazole-5-carboxaldehyde, benzenesulfonylhydrazone] |  | > 30 | minimal effective dose at 3 mg/kg (Renal Hypertensive Rats): > 3 mg/kg |
|  | 0.027 | CCCCc1nc(C(F)(F)F)c(C(N)=O)n1Cc1ccc(-c2ccccc2-c2nnn[nH]2)cc1 [Example 140J] |  | < 30 | minimal effective dose at 3 mg/kg (Renal Hypertensive Rats): < 3 mg/kg |
| 0.09 |  | CCCCc1nc(Br)c(CO)n1Cc1ccc(-c2ccccc2C(=O)O)cc1 [Example 100] | < 10 |  | minimal effective dose at 100 mg/kg (Renal Hypertensive Rats): < 100 mg/kg |
| 0.42 |  | CCCCc1nc(Cl)c(CC(=O)OC)n1Cc1ccc(NC(=O)c2c(C(=O)O)cccc2[N+](=O)[O-])cc1 [Example 7] | < 10 |  | minimal effective dose at 100 mg/kg (Renal Hypertensive Rats): > 100 mg/kg |
| 1.8 |  | O=C(O)c1ccccc1-c1ccc(Cn2c(CO)cnc2SCC2CC2)cc1 [Example 124] | < 10 |  | minimal effective dose at 100 mg/kg (Renal Hypertensive Rats): > 100 mg/kg |
|  | 0.2 | CCC=Cc1nc(C(F)(F)F)c(C=O)n1Cc1ccc(-c2ccccc2C(=O)O)cc1 [Example 140F] |  | < 30 | minimal effective dose at 3 mg/kg (Renal Hypertensive Rats): < 3 mg/kg |
|  | 0.39 | CCCc1nc(C(F)(F)F)c(C=O)n1Cc1ccc(-c2ccccc2C(=O)O)cc1 [Example 140A] |  | < 30 |  |
|  | 6.7 | CCCc1nc(C(=O)O)c(C(=O)O)n1Cc1ccc(-c2ccccc2C(=O)O)cc1 [Example 328] |  | < 30 | minimal effective dose at 3 mg/kg (Renal Hypertensive Rats): < 3 mg/kg |
| 0.12 |  | CCCCc1nc(Cl)c(CCC(=O)N2CCOCC2)n1Cc1ccc(NC(=O)c2ccccc2NS(=O)(=O)C(F)(F)F)cc1 [Example 250] | < 10 |  | minimal effective dose at 100 mg/kg (Renal Hypertensive Rats): > 100 mg/kg |
|  |  | CCCCc1nc(Cl)c(CNC(=O)OC(C)C)n1Cc1ccc(-c2ccccc2C(=O)O)cc1 [Example 152] |  |  | minimal effective dose at 10 mg/kg (Renal Hypertensive Rats; tested as sodium salt): < 10 mg/kg; minimal effective dose at 100 mg/kg (Renal Hypertensive Rats; tested as sodium salt): < 100 mg/kg; IC50 (AII receptor; [1]): 0.25 µM |
| 1.3 |  | CCCCc1nc(Cl)c(C(=O)N(C)C)n1Cc1ccc(-c2ccccc2C(=O)O)cc1 [Example 135] | < 10 |  | minimal effective dose at 100 mg/kg (Renal Hypertensive Rats): < 100 mg/kg |
| 1.6 |  | CCCCc1nc(Cl)c(/C=C/c2ccccc2)n1Cc1ccc(NC(=O)c2ccccc2C(=O)O)cc1 [Example 230, 1-[4-(2-Carboxybenzamido)-benzyl]-2-butyl-4-chloro-5-(2-phenylethen-1-yl)imidazole, E isomer] | < 10 |  |  |
|  | 1.3 | CCCCc1nc(C(=O)N2CCN(c3ccccc3OC)CC2)c(Cl)n1Cc1ccc(-c2ccccc2-c2nnn[nH]2)cc1 [Example 348] |  | > 30 | minimal effective dose at 3 mg/kg (Renal Hypertensive Rats): < 3 mg/kg |
|  | 0.038 | CCCCc1nc(I)c(C=O)n1Cc1ccc(-c2ccccc2-c2nnn[nH]2)cc1 [Example 140K] |  | < 30 | minimal effective dose at 3 mg/kg (Renal Hypertensive Rats): < 3 mg/kg |
|  |  | CCCCc1nc(Cl)c(CO)n1Cc1ccc(-c2ccccc2CC(=O)O)cc1 [Example 175, 2-n-Butyl-1-[(2'-(carboxymethyl)biphenyl-4-yl)methyl]-4-chloro-5-(hydroxymethyl)-imidazole.dicyclohexylamine salt] |  |  | minimal effective dose at 10 mg/kg (Renal Hypertensive Rats; tested as sodium salt): < 10 mg/kg; minimal effective dose at 100 mg/kg (Renal Hypertensive Rats; tested as sodium salt): > 100 mg/kg; IC50 (AII receptor; [1]): 1.5 µM |
|  | 0.064 | CCCCc1nc(C(F)(F)F)c(C(=O)OCOC(=O)C(C)(C)C)n1Cc1ccc(-c2ccccc2-c2nn[nH]n2)cc1 [Example 314A] |  | < 30 | minimal effective dose at 3 mg/kg (Renal Hypertensive Rats): < 3 mg/kg |
| 0.34 |  | CCCCc1nc(Cl)c(C(=O)OC)n1Cc1ccc(-c2ccccc2C(=O)O)cc1 [Example 126, methyl 1-[(2'-carboxybiphenyl-4-yl)methyl]-2-butyl-4-chloroimidazole-5-carboxylate] | < 10 |  | minimal effective dose at 100 mg/kg (Renal Hypertensive Rats): < 100 mg/kg |
|  |  | CCCCc1nc(Cl)c(COC)n1Cc1ccc(-c2ccccc2Cc2nn[nH]n2)cc1 [Example 174, 2-n-Butyl-4-chloro-5-methoxymethyl-1-[(2'-((tetrazol-5-yl)methyl)biphenyl-4-yl)methyl]imidazole] |  |  | minimal effective dose at 10 mg/kg (Renal Hypertensive Rats; tested as sodium salt): < 10 mg/kg; minimal effective dose at 100 mg/kg (Renal Hypertensive Rats; tested as sodium salt): > 100 mg/kg; IC50 (AII receptor; [1]): 0.3 µM |
